The values that follow are results of earlier work, collected in patent publication US11019825B2, “Product” (priority 2015, dated 2021).

One data set relates to canola seedlings. The following applies: low concentrations.

For Harzianic acid, the “antibiotic activity in vitro” value with Pythium irregulare, with Sclerotinia sclerotiorum and in the data set with Rhizoctonia solani was “antibiotic activity” each time. Moreover, the “plant growth promotion effect” value in the data set with canola seedlings is listed as “plant growth promotion effect”.
